Like-named read-outs stand apart in the source and are kept apart here.
Assays:
Calu-3 (TROP2+) = assay: cytotoxic assay (CellTiter-Glo, 72 h) Calu-3; format: cell-based; details: Homo sapiens, read-out: IC50 cell growth inhibition
Experimental: (§1) Tumor cells were seeded on 96-well plates at the following concentrations: HCC1806 (3,000 cells per well), NCI-N87 (5,000 cells per well), BxPC-3 (2,000 cells per well), Calu-3 (8,000 cells per well), NCI-H23 (TROP2+, 3,000 cells per well), and NCI-H23 (parental, 3,000 cells per well). After overnight incubation, the diluted testing items were added respectively. After 72 h, cell viability was evaluated using a CellTiter-Glo Luminescent Cell Viability Assay (Promega Corp. Madison, WI), following the manufacturer’s instruction.

[1] = tissue distribution after single i.v. injection in tumor-bearing nude mice; format: in vivo; details: [3H]KL610023 0.1 mg/100 µCi/kg single i.v.; HCC1806 xenografted nude mice
Experimental: A total of 96 female nude mice bearing human HCC1806 tumor cells were divided into 16 groups (n = 6 mice/group) according to body weights and tumor volumes. After receiving a single i.v. injection of [^3H]KL610023, at 0.083, 4, 24, and 72 h, as well as a single i.v. injection of [^3H-KL610023]SKB264, [^3H]SKB264-mAb, or [^3H-mAb]SKB264 at 1, 24, 168, and 336 h post-dosing, blood, tumor tissue, and 16 types of normal tissues were collected from the euthanized mice.
Plasma samples were directly quantified by liquid scintillation counting (LSC) without further manipulation; however, the blood and tissue samples were digested with 1N of KOH at 90°C prior to quantification by LSC. The […] (TRA) for blood, plasma, and tissues was converted to nanogram equivalent of [^3H]KL610023 or TRA (ng Eq./g).

HCC1806 xenograft = assay: PK-PD study, single dose, HCC1806 xenograft; format: in vivo, BALB/c nude mice; details: tumor; payload after single i.v. 3 mg/kg SKB264 (KL610023) or IMMU-132 (SN-38); HCC1806 tumor-bearing mice; mean, n = 5
Experimental: (§2) Phoenix WinNonlin 8.1 was used to calculate the PK parameters in the non-compartment model, including t 1/2, T max, C max, AUC0-t, and AUC0-∞. […] The half maximal effective concentration (EC50) and half maximal inhibitory concentration (IC50) were calculated using a nonlinear regression model with sigmoidal fitting. The in vitro antitumor activities of drugs were evaluated by a two-tailed paired t-test.

NCI-N87 (TROP2+) = assay: cytotoxic assay (CellTiter-Glo, 72 h) NCI-N87; format: cell-based; details: Homo sapiens, read-out: IC50 cell growth inhibition
Experimental: as §1

BXPC3 (TROP2+) = assay: cytotoxic assay (CellTiter-Glo, 72 h) BxPC-3; format: cell-based; details: Homo sapiens, read-out: IC50 cell growth inhibition
Experimental: as §1

[2] = test system: HCC1806, NCI-N87, BxPC3, Calu3, NCI-H23 (TROP2+), NCI-H23 (parental); assay: cytotoxic assay, range over the six tumor cell lines; format: cell-based; details: Homo sapiens, read-out: IC50 values, range over six cell lines
Experimental: as §1
To evaluate the effect of SKB264 on tumor cell proliferation, in vitro growth inhibition of cancer cell lines was determined by CellTiter-Glo Luminescent Cell Viability Assay. Cancer cell lines, including HCC1806, NCI-N87, BxPC3, Calu3, and NCI-H23 (TROP2+), highly expressed TROP2, while NCI-H23 (parental) was TROP2-negative ( Figure 3 ). […] NCI-H23 (TROP2+) cells were more sensitive to SKB264 than parental cells (TROP2−). […] Taken together, after SKB264 endocytosed through its interaction with TROP2 on cell surface, the releasing free KL610023 can inhibit tumor cell proliferation.

[3] = metabolic related experiments (hepatic circulation); details: unlike SN-38
HCC1806 (TROP2+) = assay: cytotoxic assay (CellTiter-Glo, 72 h) HCC1806; format: cell-based, human; details: Homo sapiens
Experimental: as §1

[4] = payload KL610023 PK in plasma of cynomolgus monkey (Table 5); format: in vivo; parameters: Vz_obs / Cl_obs: unit not given here; details: KL610023 administered, n=4, dose not given
Excerpt: Since the metabolism of ADC is different from that of the toxic payload ([30], [31]), the linkage of SKB264 mAb can dramatically prolong the half-life of KL610023 as compared to KL610023 alone. Nevertheless, after being released from SKB264, KL610023 could be rapidly eliminated. […] Overall, the proprietary technology used in our study to construct SKB264 could ensure a more precise delivery process.

NCI-H23 (TROP2-) = assay: cytotoxic assay (CellTiter-Glo, 72 h) NCI-H23 (parental); format: cell-based; details: Homo sapiens, read-out: IC50 cell growth inhibition
Experimental: as §1

[5] = PK of SKB264 and KL610023 in cynomolgus monkeys (serum); format: in vivo; details: unconjugated KL610023 0.24 mg/kg single i.v. infusion, n = 6, mean ± SD
Experimental: The PK properties of SKB264 and Tab were determined by ELISA, for which the lower limit of quantitation was 7.813 ng/ml. The serum concentration of KL610023 was measured by a validated liquid chromatography tandem mass spectrometry (LC/MS-MS), for which the lower limit of quantitation was 0.100 ng/ml. A total of 24 cynomolgus monkeys were randomized into four groups (n = 3/sex/group). Groups #1, #2, and #3 were treated with 1, 3, and 10 mg/kg of SKB264, respectively, via 15 min i.v. infusion once. Group #4 received 0.24 mg/kg of unconjugated KL610023 via i.v. infusion once. The serum concentrations of SKB264, Tab, and KL610023 were continually measured up to 672 h post-dose.
as §2

[6] = both sexes, cynomolgus monkey, in vivo, iv

CC[C@@]1(O)C(=O)OCc2c1cc1n(c2=O)Cc2c-1nc1ccccc1c2CCN(C(C)C)S(C)(=O)=O [KL610023]
IC50 (Calu-3 (TROP2+)): 1.36 nM | distribution of total radioactivity [1]: widely distributed in the tissues and organs that had more abundant blood flow | AUC0-∞ of payload (HCC1806 xenograft): 1949 ng·h/g | AUClast of payload (HCC1806 xenograft): 1903 ng·h/g | IC50 (NCI-N87 (TROP2+)): 2.01 nM | IC50 (BXPC3 (TROP2+)): 6 nM | IC50 [2]: 1.36 to 6 nM | hepatic circulation [3]: no hepatic circulation | IC50 (HCC1806 (TROP2+); HCC1806 (TROP2+), 72 h, Figure 2D, read-out: IC50 cell growth inhibition): 1.5 nM | IC50 (HCC1806 (TROP2+); HCC1806, payload comparison, Figure 7C, duplicates, read-out: IC50 inhibition of proliferation of HCC1806 cells): 1.82 nM | AUC(0-inf) [4]: 97 ± 26.9 ng·h/mL | AUC(0-t) [4]: 97 ± 26.7 ng·h/mL | Cl_obs [4]: 535 ± 148 | Cmax [4]: 273 ± 54.4 ng/mL | Vz_obs [4]: 1119 ± 548 | half-life [4]: 1.6 h | IC50 (NCI-H23 (TROP2-)): 2.14 nM | half-life ([5]; both sexes, cynomolgus monkey, in vivo, iv, 0.24 mg/kg): 5.7 h | AUC(0-inf) [5, 6]: 230 ± 43.9 ng·h/mL | AUC(0-t) [5, 6]: 228 ± 44.2 ng·h/mL | t 1/2 ([5]; 0.24 mg/kg): 5.65 ± 2.53 h

— article PMC9817100, “Preclinical profiles of SKB264, a novel anti-TROP2 antibody conjugated to topoisomerase inhibitor, demonstrated promising antitumor efficacy compared to IMMU-132” (Frontiers in Oncology, 2022)
